From ChEMBL document CHEMBL4507278 (2021)

Experiments:
[1] = target: Protein kinase C delta type (Homo sapiens) (UniProt Q05655); settings: Compound concentration 1000.0 nM
[2] = target: Serine/threonine-protein kinase SIK3 (Homo sapiens) (UniProt Q9Y2K2); settings: Compound concentration 1000.0 nM
[3] = system: Mast/stem cell growth factor receptor Kit (Homo sapiens), P10721 [V559D,V654A]; settings: Compound concentration 1000.0 nM
[4] = target: Non-receptor tyrosine-protein kinase TNK1 (Homo sapiens) (UniProt Q13470); settings: Compound concentration 1000.0 nM
[5] = target: Mitogen-activated protein kinase kinase kinase 6 (Homo sapiens) (UniProt O95382); settings: Compound concentration 1000.0 nM
[6] = target: Activin receptor type-1B (Homo sapiens) (UniProt P36896); settings: Compound concentration 1000.0 nM
[7] = target: Aurora kinase C (Homo sapiens) (UniProt Q9UQB9); settings: Compound concentration 1000.0 nM
[8] = target: Dual specificity protein kinase TTK (Homo sapiens) (UniProt P33981); settings: Compound concentration 1000.0 nM
[9] = target: Mitogen-activated protein kinase 11 (Homo sapiens) (UniProt Q15759); settings: Compound concentration 1000.0 nM
[10] = target: Myosin light chain kinase, smooth muscle (Homo sapiens) (UniProt Q15746); settings: Compound concentration 1000.0 nM
Rattus norvegicus = species: Rattus norvegicus; settings: Compound concentration 10.0 uM
[11] = target: Serine/threonine-protein kinase BRSK2 (Homo sapiens) (UniProt Q8IWQ3); settings: Compound concentration 1000.0 nM
[12] = target: Dual specificity mitogen-activated protein kinase kinase 3 (Homo sapiens) (UniProt P46734); settings: Compound concentration 1000.0 nM
[13] = target: Phosphatidylinositol 5-phosphate 4-kinase type-2 beta (Homo sapiens) (UniProt P78356); settings: Compound concentration 1000.0 nM
[14] = target: Ribosomal protein S6 kinase alpha-3 (Homo sapiens) (UniProt P51812); settings: Compound concentration 1000.0 nM
[15] = target: Mitogen-activated protein kinase kinase kinase 7 (Homo sapiens) (UniProt O43318); settings: Compound concentration 1000.0 nM
[16] = target: Protein kinase C eta type (Homo sapiens) (UniProt P24723); settings: Compound concentration 1000.0 nM
[17] = target: Receptor-interacting serine/threonine-protein kinase 2 (Homo sapiens) (UniProt O43353); settings: Compound concentration 1000.0 nM
[18] = target: Cyclin-dependent kinase 17 (Homo sapiens) (UniProt Q00537); settings: Compound concentration 1000.0 nM
[19] = target: Tyrosine-protein kinase Blk (Homo sapiens) (UniProt P51451); settings: Compound concentration 1000.0 nM
[20] = target: Insulin-like growth factor 1 receptor (Homo sapiens) (UniProt P08069); settings: Compound concentration 1000.0 nM
[21] = target: Serine/threonine-protein kinase Chk2 (Homo sapiens) (UniProt O96017); settings: Compound concentration 1000.0 nM
[22] = target: Tyrosine-protein kinase JAK3 (Homo sapiens) (UniProt P52333); settings: Compound concentration 1000.0 nM
[23] = target: Tyrosine-protein kinase TXK (Homo sapiens) (UniProt P42681); settings: Compound concentration 1000.0 nM
[24] = target: Serine/threonine-protein kinase Nek3 (Homo sapiens) (UniProt P51956); settings: Compound concentration 1000.0 nM
[25] = target: Ephrin type-A receptor 4 (Homo sapiens) (UniProt P54764); settings: Compound concentration 1000.0 nM
[26] = target: Mitogen-activated protein kinase 15 (Homo sapiens) (UniProt Q8TD08); settings: Compound concentration 1000.0 nM
[27] = target: Cyclin-dependent kinase 16 (Homo sapiens) (UniProt Q00536); settings: Compound concentration 1000.0 nM
[28] = target: Tyrosine-protein kinase Fes/Fps (Homo sapiens) (UniProt P07332); settings: Compound concentration 1000.0 nM
[29] = target: Serine/threonine-protein kinase WNK1 (Homo sapiens) (UniProt Q9H4A3); settings: Compound concentration 1000.0 nM
[30] = target: T1, Alpha-2A adrenergic receptor (Homo sapiens) (UniProt P08913); settings: Compound concentration 10.0 uM
T1 sequence (whole entry): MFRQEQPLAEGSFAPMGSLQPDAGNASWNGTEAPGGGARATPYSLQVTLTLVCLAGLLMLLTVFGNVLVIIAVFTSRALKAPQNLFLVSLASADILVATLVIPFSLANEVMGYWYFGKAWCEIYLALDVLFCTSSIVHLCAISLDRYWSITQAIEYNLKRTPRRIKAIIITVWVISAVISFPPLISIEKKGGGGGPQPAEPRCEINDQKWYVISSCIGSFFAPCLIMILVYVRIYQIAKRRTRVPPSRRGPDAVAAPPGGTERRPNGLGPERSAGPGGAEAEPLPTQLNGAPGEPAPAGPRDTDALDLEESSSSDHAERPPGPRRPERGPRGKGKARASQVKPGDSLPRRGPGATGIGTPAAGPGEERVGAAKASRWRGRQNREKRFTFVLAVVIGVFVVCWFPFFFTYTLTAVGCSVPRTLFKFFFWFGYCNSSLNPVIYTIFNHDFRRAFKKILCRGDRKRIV

[31] = target: Alpha-1A adrenergic receptor (Homo sapiens) (UniProt P35348); settings: Compound concentration 10.0 uM
[32] = target: Myosin-IIIb (Homo sapiens) (UniProt Q8WXR4); settings: Compound concentration 1000.0 nM
[33] = target: Phosphatidylinositol 4,5-bisphosphate 3-kinase catalytic subunit alpha isoform (Homo sapiens) (UniProt P42336); settings: Compound concentration 1000.0 nM
[34] = target: Death-associated protein kinase 3 (Homo sapiens) (UniProt O43293); settings: Compound concentration 1000.0 nM
[35] = target: Mitogen-activated protein kinase 13 (Homo sapiens) (UniProt O15264); settings: Compound concentration 1000.0 nM
[36] = target: Tyrosine-protein kinase Tec (Homo sapiens) (UniProt P42680); settings: Compound concentration 1000.0 nM
[37] = target: Cyclin-dependent kinase 11A (Homo sapiens) (UniProt Q9UQ88); settings: Compound concentration 1000.0 nM
[38] = target: Rhodopsin kinase GRK1 (Homo sapiens) (UniProt Q15835); settings: Compound concentration 1000.0 nM
[39] = target: Serine/threonine-protein kinase MRCK beta (Homo sapiens) (UniProt Q9Y5S2); settings: Compound concentration 1000.0 nM

Sequence of Rhodopsin kinase GRK1 (Homo sapiens) (Q15835 whole entry): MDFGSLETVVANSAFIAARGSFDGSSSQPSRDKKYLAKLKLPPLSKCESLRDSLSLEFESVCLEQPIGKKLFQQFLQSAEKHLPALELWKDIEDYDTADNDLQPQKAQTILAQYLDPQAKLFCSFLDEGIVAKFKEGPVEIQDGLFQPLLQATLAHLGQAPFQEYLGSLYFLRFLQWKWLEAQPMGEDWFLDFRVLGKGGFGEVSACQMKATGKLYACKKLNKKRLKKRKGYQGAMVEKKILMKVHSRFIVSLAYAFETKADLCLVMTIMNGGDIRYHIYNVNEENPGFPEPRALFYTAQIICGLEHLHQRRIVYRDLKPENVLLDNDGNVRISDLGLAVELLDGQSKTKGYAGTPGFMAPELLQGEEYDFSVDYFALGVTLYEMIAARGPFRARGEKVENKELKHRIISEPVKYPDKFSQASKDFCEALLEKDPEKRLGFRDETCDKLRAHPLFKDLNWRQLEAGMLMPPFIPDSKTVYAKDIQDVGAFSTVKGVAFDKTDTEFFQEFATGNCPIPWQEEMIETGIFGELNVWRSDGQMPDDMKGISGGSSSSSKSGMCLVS
Sequence of Myosin-IIIb (Homo sapiens) (Q8WXR4 whole entry, canonical isoform): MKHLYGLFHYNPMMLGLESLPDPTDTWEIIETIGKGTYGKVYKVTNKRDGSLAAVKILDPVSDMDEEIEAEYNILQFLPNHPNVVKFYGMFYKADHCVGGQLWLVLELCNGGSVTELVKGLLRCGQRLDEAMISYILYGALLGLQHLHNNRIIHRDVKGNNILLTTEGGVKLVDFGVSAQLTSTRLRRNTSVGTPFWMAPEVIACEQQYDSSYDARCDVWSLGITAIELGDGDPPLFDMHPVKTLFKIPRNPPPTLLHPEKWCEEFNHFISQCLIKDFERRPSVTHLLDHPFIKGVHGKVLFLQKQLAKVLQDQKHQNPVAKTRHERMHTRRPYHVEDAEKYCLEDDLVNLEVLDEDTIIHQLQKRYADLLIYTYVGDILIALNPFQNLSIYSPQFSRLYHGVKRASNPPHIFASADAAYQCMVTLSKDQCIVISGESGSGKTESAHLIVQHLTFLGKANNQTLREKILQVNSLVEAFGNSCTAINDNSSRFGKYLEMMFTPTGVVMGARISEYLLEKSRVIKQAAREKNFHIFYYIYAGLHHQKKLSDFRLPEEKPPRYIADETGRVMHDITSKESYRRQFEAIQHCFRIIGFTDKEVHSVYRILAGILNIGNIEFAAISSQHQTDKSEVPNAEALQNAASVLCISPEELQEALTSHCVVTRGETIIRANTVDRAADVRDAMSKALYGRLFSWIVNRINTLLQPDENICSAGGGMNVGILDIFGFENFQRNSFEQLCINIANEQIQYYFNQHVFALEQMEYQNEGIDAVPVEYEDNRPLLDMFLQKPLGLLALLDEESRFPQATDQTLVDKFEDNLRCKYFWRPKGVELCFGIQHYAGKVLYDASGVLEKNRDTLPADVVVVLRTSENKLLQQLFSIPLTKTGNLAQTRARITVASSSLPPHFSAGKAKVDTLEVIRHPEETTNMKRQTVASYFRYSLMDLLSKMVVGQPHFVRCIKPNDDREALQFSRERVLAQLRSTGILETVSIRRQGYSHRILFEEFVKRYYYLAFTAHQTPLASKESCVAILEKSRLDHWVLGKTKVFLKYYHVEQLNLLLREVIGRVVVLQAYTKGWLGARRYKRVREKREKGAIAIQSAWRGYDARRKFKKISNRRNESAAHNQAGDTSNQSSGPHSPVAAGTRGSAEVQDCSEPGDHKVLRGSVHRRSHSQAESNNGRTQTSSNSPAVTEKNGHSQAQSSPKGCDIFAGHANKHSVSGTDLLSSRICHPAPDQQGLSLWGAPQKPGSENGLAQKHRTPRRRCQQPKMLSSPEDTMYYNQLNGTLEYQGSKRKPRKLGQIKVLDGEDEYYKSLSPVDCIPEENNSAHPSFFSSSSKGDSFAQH
Sequence of Serine/threonine-protein kinase Chk2 (Homo sapiens) (O96017 whole entry): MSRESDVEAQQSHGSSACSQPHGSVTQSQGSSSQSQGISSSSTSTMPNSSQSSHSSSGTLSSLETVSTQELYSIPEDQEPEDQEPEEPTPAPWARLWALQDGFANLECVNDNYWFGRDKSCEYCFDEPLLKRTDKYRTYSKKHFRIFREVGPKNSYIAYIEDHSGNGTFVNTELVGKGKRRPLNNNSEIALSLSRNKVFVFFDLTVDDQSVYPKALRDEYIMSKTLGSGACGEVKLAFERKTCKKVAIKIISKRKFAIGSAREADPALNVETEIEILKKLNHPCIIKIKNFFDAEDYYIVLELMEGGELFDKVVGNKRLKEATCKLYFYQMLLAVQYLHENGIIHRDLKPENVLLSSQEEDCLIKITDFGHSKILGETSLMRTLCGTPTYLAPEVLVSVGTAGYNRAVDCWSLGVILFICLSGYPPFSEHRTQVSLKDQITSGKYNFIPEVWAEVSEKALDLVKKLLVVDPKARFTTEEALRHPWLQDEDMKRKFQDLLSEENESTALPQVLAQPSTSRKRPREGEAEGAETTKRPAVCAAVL
Sequence of Death-associated protein kinase 3 (Homo sapiens) (O43293 whole entry, looked up): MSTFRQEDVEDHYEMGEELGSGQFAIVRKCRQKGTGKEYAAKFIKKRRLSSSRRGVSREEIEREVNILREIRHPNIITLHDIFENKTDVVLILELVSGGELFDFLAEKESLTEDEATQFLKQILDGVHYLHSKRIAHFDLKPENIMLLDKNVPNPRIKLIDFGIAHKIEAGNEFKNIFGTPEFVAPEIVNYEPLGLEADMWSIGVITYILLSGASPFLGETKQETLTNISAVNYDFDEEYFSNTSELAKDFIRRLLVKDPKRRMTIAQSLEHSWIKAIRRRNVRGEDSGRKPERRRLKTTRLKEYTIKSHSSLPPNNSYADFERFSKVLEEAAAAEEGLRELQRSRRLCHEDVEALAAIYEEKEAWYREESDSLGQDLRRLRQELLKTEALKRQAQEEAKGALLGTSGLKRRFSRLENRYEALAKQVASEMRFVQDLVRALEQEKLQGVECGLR
Sequence of Myosin light chain kinase, smooth muscle (Homo sapiens) (Q15746 whole entry): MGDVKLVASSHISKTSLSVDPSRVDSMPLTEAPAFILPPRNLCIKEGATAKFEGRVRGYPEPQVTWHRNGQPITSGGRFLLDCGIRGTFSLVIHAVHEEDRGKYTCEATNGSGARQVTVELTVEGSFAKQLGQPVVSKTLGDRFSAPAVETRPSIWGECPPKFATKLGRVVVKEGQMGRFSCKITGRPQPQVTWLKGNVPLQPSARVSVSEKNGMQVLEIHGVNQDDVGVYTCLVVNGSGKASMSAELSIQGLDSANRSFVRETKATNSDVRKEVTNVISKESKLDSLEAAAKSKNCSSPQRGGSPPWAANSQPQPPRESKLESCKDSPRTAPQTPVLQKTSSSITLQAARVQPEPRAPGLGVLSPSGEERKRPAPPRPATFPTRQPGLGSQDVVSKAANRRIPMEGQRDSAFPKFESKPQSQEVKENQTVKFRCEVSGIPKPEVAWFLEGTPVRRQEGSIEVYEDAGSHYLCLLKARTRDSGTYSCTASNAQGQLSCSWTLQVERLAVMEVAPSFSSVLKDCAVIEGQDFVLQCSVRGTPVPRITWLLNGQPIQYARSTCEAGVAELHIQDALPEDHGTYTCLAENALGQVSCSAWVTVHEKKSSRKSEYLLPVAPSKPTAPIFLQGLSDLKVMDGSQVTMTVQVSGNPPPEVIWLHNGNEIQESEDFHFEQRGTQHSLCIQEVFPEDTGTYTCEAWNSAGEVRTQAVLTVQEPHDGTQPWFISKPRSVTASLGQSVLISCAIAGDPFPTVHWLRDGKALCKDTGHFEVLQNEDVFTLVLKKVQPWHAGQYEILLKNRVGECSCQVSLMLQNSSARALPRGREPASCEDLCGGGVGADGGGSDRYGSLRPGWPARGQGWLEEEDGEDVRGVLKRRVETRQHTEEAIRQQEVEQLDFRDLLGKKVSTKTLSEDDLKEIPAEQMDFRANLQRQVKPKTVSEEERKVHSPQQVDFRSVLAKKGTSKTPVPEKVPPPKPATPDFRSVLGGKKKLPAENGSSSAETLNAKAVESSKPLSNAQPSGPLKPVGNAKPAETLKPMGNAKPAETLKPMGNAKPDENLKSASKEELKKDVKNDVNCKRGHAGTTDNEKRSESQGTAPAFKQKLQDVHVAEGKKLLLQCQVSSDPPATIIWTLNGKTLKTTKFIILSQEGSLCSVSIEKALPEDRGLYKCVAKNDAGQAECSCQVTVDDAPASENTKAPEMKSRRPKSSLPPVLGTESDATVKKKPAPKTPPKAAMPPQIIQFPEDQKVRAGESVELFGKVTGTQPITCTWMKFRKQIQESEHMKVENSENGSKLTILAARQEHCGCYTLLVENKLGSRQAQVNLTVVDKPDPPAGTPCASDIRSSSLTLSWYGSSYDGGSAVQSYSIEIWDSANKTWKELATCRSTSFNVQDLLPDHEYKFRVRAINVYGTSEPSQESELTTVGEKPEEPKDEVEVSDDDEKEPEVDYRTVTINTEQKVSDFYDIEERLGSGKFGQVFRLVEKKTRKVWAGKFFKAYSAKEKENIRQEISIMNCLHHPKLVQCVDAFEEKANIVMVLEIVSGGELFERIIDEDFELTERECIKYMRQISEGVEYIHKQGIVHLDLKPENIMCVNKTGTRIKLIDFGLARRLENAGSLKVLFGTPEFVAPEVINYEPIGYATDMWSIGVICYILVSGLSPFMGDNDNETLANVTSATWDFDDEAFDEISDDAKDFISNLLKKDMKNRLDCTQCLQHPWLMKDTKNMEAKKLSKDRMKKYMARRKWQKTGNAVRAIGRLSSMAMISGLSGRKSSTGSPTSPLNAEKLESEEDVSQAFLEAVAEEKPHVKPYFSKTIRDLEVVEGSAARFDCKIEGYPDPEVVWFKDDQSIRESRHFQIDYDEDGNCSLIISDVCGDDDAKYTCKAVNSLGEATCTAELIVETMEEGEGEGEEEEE

CS(=O)(=O)NCC[C@H](NC(=O)c1cncc2c1cnn2-c1ccc(F)cc1)c1ccnc(S(C)(=O)=O)c1 [BI 9307]
inactive: residual activity [1] 76% | residual activity [2] 98% | residual activity [3] 100% | residual activity [4] 100% | residual activity [5] 100% | residual activity [6] 100% | residual activity [7] 92% | residual activity [8] 91% | residual activity [9] 100% | residual activity [10] 100% | inhibition (Rattus norvegicus) -5.04% | residual activity [11] 77% | residual activity [12] 100% | residual activity [13] 100% | residual activity [14] 100% | residual activity [15] 100% | residual activity [16] 80% | residual activity [17] 100% | residual activity [18] 100% | residual activity [19] 100% | residual activity [20] 100% | residual activity [21] 77% | residual activity [22] 100% | residual activity [23] 84% | residual activity [24] 86% | residual activity [25] 100% | residual activity [26] 100% | residual activity [27] 100% | residual activity [28] 100% | residual activity [29] 100% | inhibition [30] 3.49% | inhibition [31] -3.82% | residual activity [32] 100% | residual activity [33] 83% | residual activity [34] 100% | residual activity [35] 100% | residual activity [36] 96% | residual activity [37] 100% | residual activity [38] 100% | residual activity [39] 95%

CS(=O)(=O)c1cc(C2(NC(=O)c3cncc4c3cnn4-c3ccc(F)cc3)CC2)ccn1 [BI 639667]
inactive: residual activity [1] 100% | residual activity [2] 81% | residual activity [3] 88% | residual activity [4] 80% | residual activity [5] 100% | residual activity [6] 100% | residual activity [7] 100% | residual activity [8] 90% | residual activity [9] 100% | residual activity [10] 94% | inhibition (Rattus norvegicus) 17.9% | residual activity [11] 84% | residual activity [12] 88% | residual activity [13] 100% | residual activity [14] 99% | residual activity [15] 94% | residual activity [16] 100% | residual activity [17] 53% | residual activity [18] 79% | residual activity [19] 100% | residual activity [20] 100% | residual activity [21] 100% | residual activity [22] 75% | residual activity [23] 89% | residual activity [24] 100% | residual activity [25] 100% | residual activity [26] 100% | residual activity [27] 94% | residual activity [28] 100% | residual activity [29] 100% | inhibition [30] -2.44% | inhibition [31] -7.71% | residual activity [32] 100% | residual activity [33] 100% | residual activity [34] 98% | residual activity [35] 93% | residual activity [36] 99% | residual activity [37] 99% | residual activity [38] 87% | residual activity [39] 100%
